Data taken from publication PMC10269561, “Absence of Clinically Meaningful Drug-Drug Interactions with Rezafungin: Outcome of Investigations” (Microbiology Spectrum, 2023).
Numbered stars: 1 amine (or outer) side, 2 acyl side, 3 side chain; on linkers, the order of the positions; unused ones are H or OH. Bridge positions count the residues as written; N and C are the ends. Square brackets hold non-standard residues; d marks the D form. Peptide text beside a SMILES is read from it. * marks the point of attachment. Orn(4R-OH,5R-OCH2CH2NMe3+) = C[N+](C)(C)CCO[C@@H](N[*:3])[C@H](O)C[C@H](N[*:1])C(=O)[*:2]; pTerphenylCO(4''-OnC5H11) = CCCCCOc1ccc(-c2ccc(-c3ccc(C(=O)*)cc3)cc2)cc1; hTyr(3S-OH,4S-OH) = N[C@H](C(=O)O)[C@H](O)[C@@H](O)c1ccc(O)cc1; Pro(3S-OH,4S-Me) = C[C@H]1CN[C@H](C(=O)O)[C@H]1O; Hyp = O=C(O)[C@@H]1C[C@@H](O)CN1

Columns and labels:
human OATP1B3 = human OATP1B3 (Homo sapiens, UniProt Q9NPD5); assay: NC-152 transporter inhibition, OATP1B3; format: in vitro ADME
Excerpt: Abbreviations: ABC = ATP binding cassette; BCRP = breast cancer resistance protein; BSEP = bile salt export pump; CYP = cytochrome P450; MATE =
multidrug and toxic compound extrusion; MDCK = Madin-Darby canine kidney; MDR = multidrug resistance protein; mRNA = messenger ribonucleic acid;
OAT = organic anion transporter; OATP = organic anion transporter protein; OCT – organic cation transporter; OCTN = organic cation transporter novel; P-gp =
P-glycoprotein; SLC = solute carrier.

human MATE2-K = human MATE2-K (Homo sapiens, UniProt Q86VL8); assay: NC-152 transporter inhibition, MATE2-K; format: in vitro ADME; conditions: in vitro cell test system
Excerpt: (§1) Microbiology Spectrum Supplementary materials
(§2) Table S 4Summary of initial in vitro assessments […]
(§3) whether rezafungin can induce CYP isoforms 1A2, 2B6, or 3A4. mRNA expression) of CYP1A2 and CYP2B6, and, in the case of […]
(§4) Abbreviations: ABC = ATP binding cassette; BCRP = breast cancer resistance protein; BSEP = bile salt export pump; CYP = cytochrome P450; MATE = multidrug and toxic compound extrusion; MDCK = Madin-Darby canine kidney; MDR = multidrug resistance protein; mRNA = messenger ribonucleic acid; OAT = organic anion transporter; OATP = organic anion transporter protein; OCT – organic cation transporter; OCTN = organic cation transporter novel; P-gp = P-glycoprotein; SLC = solute carrier.

[1] = Study 1 safety and tolerability (TEAEs); format: in vivo, human
Experimental: After screening, subjects were admitted to the clinical research unit (CRU) prior to the first dose of rezafungin (from day −22) and were discharged from the CRU on day 22. Nine oral substrate drugs were administered as part of a cocktail containing two or more drugs once before and once after receiving rezafungin on a schedule designed to allow the washout of the drugs in the cocktail between doses and limit interactions with other drugs (Fig. 4A). […] A loading dose of rezafungin for injection (600 mg) was administered over 1 h on day 1, followed by two once-weekly 400-mg doses over 1 h on days 10 and 15. Due to a short delay in the availability of the investigation study drug, the second once-weekly dose of rezafungin and the second set of oral substrate drugs were administered on day 10 instead of day 8, although the time between doses remained sufficient for all originally planned PK samplings through 96 h postdose and for the adequate washout of the substrate drugs. The total duration of treatment was up to 89 days, including 45 days of screening and 44 days of treatment in the CRU.
as §1
Table S 2Summary of t reatment-emergent adverse e vents for Study 1
System Organ Class Safety Population Adverse Event Severity(N=26), n Rezafungin Safety Population (N=26), n
Adverse Event Mild Moderate Severe Mild Moderate Severe […]

[2] = test system: Caco-2 epithelial monolayers; assay: NC-049 membrane permeability in Caco-2 monolayers; format: in vitro ADME; conditions: Caco-2 epithelial monolayers expressing human P-gp and BCRP; both transport directions, in the absence and presence of inhibitors; study NC-049
Excerpt: as §1, §2, §3, §4

BCRP = BCRP (Homo sapiens, UniProt Q9UNQ0); assay: NC-160 substrate interaction, BCRP; format: in vitro ADME; conditions: efflux (ABC) transporter
Excerpt: as §1, §2, §3, §4

CYP2C9 = CYP2C9 (Homo sapiens, UniProt P11712); assay: NC-012 CYP450 inhibition screening, recombinant CYP2C9; format: in vitro ADME; conditions: 10 μM, fluorogenic substrate, recombinant human CYP
Excerpt: as §1, §2, §3, §4

Sequence of human OATP1B3 (Q9NPD5 whole entry): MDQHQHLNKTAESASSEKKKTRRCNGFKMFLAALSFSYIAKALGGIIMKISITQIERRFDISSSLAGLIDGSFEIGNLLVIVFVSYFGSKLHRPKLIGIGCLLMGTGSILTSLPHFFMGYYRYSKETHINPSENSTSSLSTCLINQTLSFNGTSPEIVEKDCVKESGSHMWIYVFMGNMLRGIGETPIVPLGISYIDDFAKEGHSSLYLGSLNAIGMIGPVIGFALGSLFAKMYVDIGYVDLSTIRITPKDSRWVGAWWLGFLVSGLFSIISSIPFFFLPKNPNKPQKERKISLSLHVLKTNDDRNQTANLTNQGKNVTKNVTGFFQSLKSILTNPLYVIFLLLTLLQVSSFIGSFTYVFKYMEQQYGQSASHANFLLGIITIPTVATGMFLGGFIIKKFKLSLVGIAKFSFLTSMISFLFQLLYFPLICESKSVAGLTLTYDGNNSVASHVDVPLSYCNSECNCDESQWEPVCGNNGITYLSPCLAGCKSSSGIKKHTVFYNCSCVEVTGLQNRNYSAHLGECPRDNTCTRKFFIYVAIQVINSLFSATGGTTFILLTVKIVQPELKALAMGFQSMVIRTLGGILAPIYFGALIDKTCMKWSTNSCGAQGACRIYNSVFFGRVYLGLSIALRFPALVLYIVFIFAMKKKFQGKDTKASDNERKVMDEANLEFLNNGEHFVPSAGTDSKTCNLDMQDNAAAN
Sequence of CYP2C9 (P11712 whole entry): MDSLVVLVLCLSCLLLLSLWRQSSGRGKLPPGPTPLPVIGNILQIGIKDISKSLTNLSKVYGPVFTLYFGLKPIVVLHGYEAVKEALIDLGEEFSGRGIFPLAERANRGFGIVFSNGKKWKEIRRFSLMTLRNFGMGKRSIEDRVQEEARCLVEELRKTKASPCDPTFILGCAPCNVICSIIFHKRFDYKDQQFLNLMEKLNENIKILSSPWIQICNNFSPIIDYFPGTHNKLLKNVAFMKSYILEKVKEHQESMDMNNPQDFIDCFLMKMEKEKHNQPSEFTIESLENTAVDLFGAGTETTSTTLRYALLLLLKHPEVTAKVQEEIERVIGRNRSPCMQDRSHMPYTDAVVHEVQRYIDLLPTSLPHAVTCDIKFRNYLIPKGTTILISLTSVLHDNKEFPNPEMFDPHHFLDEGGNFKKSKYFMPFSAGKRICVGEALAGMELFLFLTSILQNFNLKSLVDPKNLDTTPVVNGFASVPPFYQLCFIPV
Sequence of human MATE2-K (Q86VL8 1-566 isoform Q86VL8-3): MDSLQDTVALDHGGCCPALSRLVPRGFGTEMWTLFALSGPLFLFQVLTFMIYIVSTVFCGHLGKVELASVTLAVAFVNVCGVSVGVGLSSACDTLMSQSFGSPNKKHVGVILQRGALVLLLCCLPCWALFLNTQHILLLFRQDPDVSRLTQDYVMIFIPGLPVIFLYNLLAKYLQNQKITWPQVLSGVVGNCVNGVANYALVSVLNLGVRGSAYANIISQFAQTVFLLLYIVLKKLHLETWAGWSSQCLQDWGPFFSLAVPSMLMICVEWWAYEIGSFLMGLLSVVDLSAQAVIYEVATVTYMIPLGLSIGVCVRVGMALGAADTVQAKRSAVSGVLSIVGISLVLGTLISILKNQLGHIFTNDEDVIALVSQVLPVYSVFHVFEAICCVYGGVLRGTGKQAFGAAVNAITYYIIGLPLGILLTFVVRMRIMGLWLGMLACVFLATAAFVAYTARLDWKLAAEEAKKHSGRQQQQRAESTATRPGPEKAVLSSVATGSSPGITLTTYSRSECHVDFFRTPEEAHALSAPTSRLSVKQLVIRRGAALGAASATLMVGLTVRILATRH
Sequence of BCRP (Q9UNQ0 whole entry): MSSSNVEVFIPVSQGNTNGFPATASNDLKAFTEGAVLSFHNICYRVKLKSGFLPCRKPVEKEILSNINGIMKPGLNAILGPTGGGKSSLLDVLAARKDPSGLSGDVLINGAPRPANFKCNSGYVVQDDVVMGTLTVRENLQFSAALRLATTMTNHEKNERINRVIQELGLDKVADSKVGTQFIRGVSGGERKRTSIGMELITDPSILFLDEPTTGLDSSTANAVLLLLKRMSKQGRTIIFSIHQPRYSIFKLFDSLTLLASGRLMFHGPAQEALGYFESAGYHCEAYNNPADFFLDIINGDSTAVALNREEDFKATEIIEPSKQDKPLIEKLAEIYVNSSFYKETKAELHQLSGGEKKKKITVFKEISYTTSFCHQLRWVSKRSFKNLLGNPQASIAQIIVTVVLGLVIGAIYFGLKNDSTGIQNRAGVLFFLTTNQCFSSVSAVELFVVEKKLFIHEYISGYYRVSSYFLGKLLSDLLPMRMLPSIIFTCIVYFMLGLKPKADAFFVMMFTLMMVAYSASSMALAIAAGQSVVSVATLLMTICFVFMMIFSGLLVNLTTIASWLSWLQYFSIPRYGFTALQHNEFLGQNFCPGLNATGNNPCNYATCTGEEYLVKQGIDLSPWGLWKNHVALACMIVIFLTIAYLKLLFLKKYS

SMILES: CCCCCOc1ccc(-c2ccc(-c3ccc(C(=O)N[C@H]4C[C@@H](O)[C@@H](OCC[N+](C)(C)C)NC(=O)[C@@H]5[C@@H](O)[C@@H](C)CN5C(=O)[C@H]([C@@H](C)O)NC(=O)[C@H]([C@H](O)[C@@H](O)c5ccc(O)cc5)NC(=O)[C@@H]5C[C@@H](O)CN5C(=O)[C@H]([C@@H](C)O)NC4=O)cc3)cc2)cc1 [Rezafungin] ({pTerphenylCO(4''-OnC5H11)}-[Orn(4R-OH,5R-OCH2CH2NMe3+)]T[Hyp][hTyr(3S-OH,4S-OH)]T[Pro(3S-OH,4S-Me)]; lactam 1-C)
- inhibitor of probe substrate transport mediated via OATP1B3 (human OATP1B3; in vitro cell test system, NC-152): determined to be an inhibitor
- IC50 (human OATP1B3; initial in vitro studies, read-out: IC50, OATP-1B3 uptake transporter (moderate inhibition)): > 6 µM
- inhibitor of probe substrate transport mediated via MATE2-K (human MATE2-K): determined to be an inhibitor
- serious TEAEs, deaths, discontinuations due to a TEAE ([1]; Study 1): no serious TEAEs or deaths or discontinuations due to a TEAE
- tolerability ([1]; once-weekly i.v. infusions, 600-mg loading dose followed by two 400-mg maintenance doses): generally well tolerated
- permeability coefficient [2]: < 0.2 ×10⁻⁶ cm/s
- substrate of BCRP (BCRP): not a substrate
- inhibition of CYP2C9 (CYP2C9): Minimal inhibition
